The supplement of paper PMC13380429
Counter-ions that a name gives are not always drawn.

What was measured:
Settings in all cases: 72 h
HepG2 [1] = assay: drug sensitivity score (DSS) for viability; higher = more toxic; extreme values may be limits of the assay
U2OS [2] = assay: as above
Calu-3 [3] = assay: as above
Vero E6 [4] = assay: as above
HepG2 [5] = assay: cell viability relative to DMSO; higher = less toxic
U2OS [6] = assay: as above
Caco-2 [7] = assay: as above
Vero E6 [8] = assay: as above
Caco-2 [9] = assay: drug sensitivity score (DSS) for viability; higher = more toxic; extreme values may be limits of the assay
HepG2 [10] = assay: relative viability EC50 (midpoint between 100% and the lowest measured viability); higher = less toxic
U2OS [11] = assay: as above
Caco-2 [12] = assay: as above
Vero E6 [13] = assay: as above
Calu-3 [14] = assay: cell viability relative to DMSO; higher = less toxic

| SMILES | drug sensitivity score (HepG2 [1]) | drug sensitivity score (U2OS [2]) | drug sensitivity score (Calu-3 [3]) | drug sensitivity score (Vero E6 [4]) | cell viability (HepG2 [5]; 1 nM) [%] | cell viability (HepG2 [5]; 10 nM) [%] | cell viability (HepG2 [5]; 100 nM) [%] | cell viability (HepG2 [5]; 1000 nM) [%] | cell viability (HepG2 [5]; 10000 nM) [%] | cell viability (U2OS [6]; 1 nM) [%] | cell viability (U2OS [6]; 10 nM) [%] | cell viability (U2OS [6]; 100 nM) [%] | cell viability (U2OS [6]; 1000 nM) [%] | cell viability (U2OS [6]; 10000 nM) [%] | cell viability (Caco-2 [7]; 1 nM) [%] | cell viability (Caco-2 [7]; 10 nM) [%] | cell viability (Caco-2 [7]; 100 nM) [%] | cell viability (Caco-2 [7]; 1000 nM) [%] | cell viability (Caco-2 [7]; 10000 nM) [%] | cell viability (Vero E6 [8]; 1 nM) [%] | cell viability (Vero E6 [8]; 10 nM) [%] | cell viability (Vero E6 [8]; 100 nM) [%] | cell viability (Vero E6 [8]; 1000 nM) [%] | cell viability (Vero E6 [8]; 10000 nM) [%] | drug sensitivity score (Caco-2 [9]) | relative viability EC50 (HepG2 [10]) [µM] | relative viability EC50 (U2OS [11]) [µM] | relative viability EC50 (Caco-2 [12]) [µM] | relative viability EC50 (Vero E6 [13]) [µM] | cell viability (Calu-3 [14]; 1 nM) [%] | cell viability (Calu-3 [14]; 10 nM) [%] | cell viability (Calu-3 [14]; 100 nM) [%] | cell viability (Calu-3 [14]; 1000 nM) [%] | cell viability (Calu-3 [14]; 10000 nM) [%] |
| --- | --- | --- | --- | --- | --- | --- | --- | --- | --- | --- | --- | --- | --- | --- | --- | --- | --- | --- | --- | --- | --- | --- | --- | --- | --- | --- | --- | --- | --- | --- | --- | --- | --- | --- |
| CN(C)[C@@H]1C(O)=C(C(N)=O)C(=O)[C@@]2(O)C(O)=C3C(=O)c4c(O)ccc(Cl)c4[C@@](C)(O)[C@H]3C[C@@H]12 [CHLORTETRACYCLINE HYDROCHLORIDE] | 0 | 0 | 0 | 0 | – | – | – | – | – | – | – | – | – | – | – | – | – | – | – | – | – | – | – | – | – | – | – | – | – | – | – | – | – | – |
| C[C@]12CC[C@@H]3c4ccc(O)cc4CC[C@H]3[C@@H]1CC[C@@H]2O [estradiol] | 0 | 0 | 0 | 0 | – | – | – | – | – | – | – | – | – | – | – | – | – | – | – | – | – | – | – | – | – | – | – | – | – | – | – | – | – | – |
| O=C(O)c1cc2occc2[nH]1 | 0 | 0 | – | 0 | 99.2 | 104 | 103 | 92.6 | 103 | 98.6 | 104 | 99.5 | 102 | 98.7 | 91.3 | 89 | 94.2 | 94.1 | 94.6 | 107 | 104 | 102 | 99.8 | 101 | 0 | > 10 | > 10 | > 10 | > 10 | – | – | – | – | – |
| O=C(O)C(=O)O.[NH-][C@@H]1CCCC[C@H]1[NH-].[Pt+2] [oxaliplatin] | 6 | 0.1 | 0 | 4.8 | – | – | – | – | – | – | – | – | – | – | – | – | – | – | – | – | – | – | – | – | – | – | – | – | – | – | – | – | – | – |
| O=C(/C=C/c1ccc(O)c2c1[C@H](C(=O)O[C@H](Cc1ccc(O)c(O)c1)C(=O)O)[C@@H](c1ccc(O)c(O)c1)O2)O[C@H](Cc1ccc(O)c(O)c1)C(=O)O [salvianolic-acid-B] | 0 | 0 | – | 0 | 101 | 86.8 | 107 | 96.3 | 98 | 94.4 | 98.2 | 97.5 | 101 | 97.8 | 99.2 | 97.1 | 96.6 | 104 | 101 | 96.1 | 92.9 | 95.3 | 91.6 | 103 | 0 | > 10 | > 10 | > 10 | > 10 | – | – | – | – | – |
| COc1ccc(C(=O)C2CCN(CC(=O)N(Cc3nc4c(c(=O)[nH]3)COCC4)CC3CC3)CC2)cc1 [NVP-TNKS656] | 0 | 0.3 | 9.5 | 8.7 | 98.7 | 106 | 106 | 106 | 93.6 | 99 | 96.7 | 91.5 | 88.9 | 90.6 | 110 | 96.7 | 92.9 | 109 | 93.3 | 105 | 101 | 83.1 | 63.1 | 65.9 | 0 | > 10 | > 10 | > 10 | – | 95.3 | 97.3 | 70.3 | 68.2 | 82.7 |
| CCNC(=O)[C@@H]1CCCN1C(=O)[C@H](CCCNC(=N)N)NC(=O)[C@H](CC(C)C)NC(=O)[C@@H](C)NC(=O)[C@H](Cc1ccc(O)cc1)NC(=O)[C@H](CO)NC(=O)[C@H](Cc1c[nH]c2ccccc12)NC(=O)[C@H](Cc1cnc[nH]1)NC(=O)[C@@H]1CCC(=O)N1 [alarelin] | 0 | – | – | 0 | 97.8 | 103 | 101 | 92 | 93.7 | – | – | – | – | – | 116 | 100 | 86.3 | 118 | 102 | 109 | 106 | 104 | 96.9 | 102 | 0 | > 10 | – | > 10 | > 10 | – | – | – | – | – |
| CCNC(=O)CC[C@H](N)C(=O)O [L-theanine] | 0 | 0 | – | 0 | 95.8 | 89.8 | 95.5 | 89.8 | 99.4 | 99.8 | 103 | 95.8 | 101 | 102 | 98.2 | 95 | 98.7 | 93.1 | 105 | 95.8 | 99 | 105 | 104 | 88 | 0 | > 10 | > 10 | > 10 | > 10 | – | – | – | – | – |
| Cc1ccc(S(=O)(=O)NC(=O)NN2CC3CCCC3C2)cc1 (centres undefined) [gliclazide] | 0 | 0 | – | 0 | 99.1 | 96.1 | 105 | 118 | 108 | 92 | 99.3 | 102 | 93.3 | 101 | 87 | 110 | 100 | 102 | 89 | 106 | 97 | 101 | 99.2 | 102 | 0 | > 10 | > 10 | > 10 | > 10 | – | – | – | – | – |
| Clc1ccc2nsnc2c1NC1=NCCN1 [tizanidine] | 0 | 0 | 0 | 0 | – | – | – | – | – | – | – | – | – | – | – | – | – | – | – | – | – | – | – | – | – | – | – | – | – | – | – | – | – | – |
| COc1ccc(-n2c(SCCCN3C(=O)c4cccc5cccc(c45)C3=O)nnc2-c2ccncc2)cc1 [WIKI4] | 0 | 0.2 | 4.7 | 2.8 | 96.3 | 97.6 | 93.4 | 107 | 100 | 100 | 109 | 98.6 | 95.7 | 87.3 | 90.5 | 109 | 96 | 87 | 95.6 | 97.8 | 101 | 97.9 | 91.8 | 66.8 | 1.1 | > 10 | > 10 | > 10 | – | 96.2 | 103 | 92.8 | 75 | 71.3 |
| CC(=O)OCC(=O)[C@@]1(O)[C@@H](C)C[C@H]2[C@@H]3CCC4=CC(=O)C=C[C@]4(C)[C@@]3(F)[C@@H](O)C[C@@]21C [betamethasone-acetate] | 0 | 0 | 0 | 0 | – | – | – | – | – | – | – | – | – | – | – | – | – | – | – | – | – | – | – | – | – | – | – | – | – | – | – | – | – | – |
| c1ccc(NCc2ccc(CNc3ccccn3)cc2)nc1 [WZ811] | 0 | 0 | – | 0 | 98.6 | 101 | 98.7 | 106 | 111 | 96.8 | 96.1 | 99.8 | 96.7 | 97.9 | 97.9 | 105 | 103 | 95.5 | 100 | 93.5 | 95.5 | 94.2 | 101 | 103 | 0 | > 10 | > 10 | > 10 | > 10 | – | – | – | – | – |
| Nc1nc2cc(-c3ccc4ncc(C(=O)N5CCOCC5)n4c3)ccc2o1 [MLN1117] | 2.9 | 1 | 2.2 | 0.5 | 98.1 | 101 | 102 | 96.3 | 54.5 | 96.4 | 95.2 | 106 | 91.2 | 84.3 | 107 | 101 | 107 | 89.9 | 66.6 | 104 | 106 | 106 | 95.1 | 85.8 | 3 | – | > 10 | – | > 10 | 94.2 | 102 | 104 | 96.8 | 64.7 |
